From the supplement of paper PMC10627819

Legend:
S. pneumoniae D39V = experiment: fitness (endpoint OD595 vs no drug) (fraction); higher = more growth; settings: main component drawn
How it was run: (§1)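 At 37 °C, bacteria in TSB, LB Lennox or CY were grown in 384-well plates from a starting OD595 of 0.01. OD595 was measured every 30 min for 14 h, with the first reading used as background. Fitness is the optical density at the switch to stationary phase as a fraction of the robust mean of no-drug control wells, capped at 1.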

B. subtilis 168 = experiment: as above; settings: main component drawn
How it was run: as §1
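Also: OD595 on entry to stationary phase over no-drug wells; at most 1.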

CN(C)[C@@H]1C(O)=C(C(N)=O)C(=O)[C@@]2(O)C(O)=C3C(=O)c4c(O)ccc(Cl)c4[C@@](C)(O)[C@H]3C[C@@H]12 [Chlortetracycline] + CCC(C)C1C(=O)NC(=C)C(=O)NC(C(=O)NC(CSCC(C(=O)N1)NC(=O)/C(=C/C)/NC(=O)C(C(C)CC)N)C(=O)NC2C(SCC(NC(=O)CNC(=O)C3CCCN3C2=O)C(=O)NC(CCCCN)C(=O)NC4C(SCC(NC(=O)CNC(=O)C(NC(=O)C(NC(=O)C(NC(=O)CNC4=O)C)CC(C)C)CCSC)C(=O)NC(CC(=O)N)C(=O)NC(CCSC)C(=O)NC(CCCCN)C(=O)NC5C(SCC6C(=O)NC(C(=O)NC(CSC(C(C(=O)N6)NC(=O)C(NC5=O)C)C)C(=O)NC(CO)C(=O)NC(C(C)CC)C(=O)NC(CC7=CN=CN7)C(=O)NC(C(C)C)C(=O)NC(=C)C(=O)NC(CCCCN)C(=O)O)CC8=CN=CN8)C)C)C)CC(C)C [Nisin]
Settings | fitness
B. subtilis 168, first compound 0.0475 µg/mL, partner 0.5 µg/mL | 0.902
B. subtilis 168, first compound 0.0475 µg/mL, partner 1 µg/mL | 0.849
B. subtilis 168, first compound 0.0475 µg/mL, partner 2 µg/mL | 0.452
B. subtilis 168, first compound 0.095 µg/mL, partner 0.5 µg/mL | 0.794
B. subtilis 168, first compound 0.095 µg/mL, partner 1 µg/mL | 0.733
B. subtilis 168, first compound 0.095 µg/mL, partner 2 µg/mL | 0.387
B. subtilis 168, first compound 0.19 µg/mL, partner 0.5 µg/mL | 0.605
B. subtilis 168, first compound 0.19 µg/mL, partner 1 µg/mL | 0.454
B. subtilis 168, first compound 0.19 µg/mL, partner 2 µg/mL | 0.116
S. pneumoniae D39V, first compound 0.012 µg/mL, partner 0.4275 µg/mL | 0.973
S. pneumoniae D39V, first compound 0.012 µg/mL, partner 0.855 µg/mL | 0.804
S. pneumoniae D39V, first compound 0.012 µg/mL, partner 1.71 µg/mL | 0.0763
S. pneumoniae D39V, first compound 0.024 µg/mL, partner 0.4275 µg/mL | 0.909
S. pneumoniae D39V, first compound 0.024 µg/mL, partner 0.855 µg/mL | 0.526
S. pneumoniae D39V, first compound 0.024 µg/mL, partner 1.71 µg/mL | 0.0832
S. pneumoniae D39V, first compound 0.048 µg/mL, partner 0.4275 µg/mL | 0.766
S. pneumoniae D39V, first compound 0.048 µg/mL, partner 1.71 µg/mL | 0.0976
S. pneumoniae D39V, first compound 0.375 µg/mL, partner 1.6 µg/mL | 0.014
S. pneumoniae D39V, first compound 0.375 µg/mL, partner 3.2 µg/mL | 0.0066
S. pneumoniae D39V, first compound 0.375 µg/mL, partner 6.4 µg/mL | 0.0151
S. pneumoniae D39V, first compound 0.75 µg/mL, partner 1.6 µg/mL | 0.0251
S. pneumoniae D39V, first compound 0.75 µg/mL, partner 3.2 µg/mL | 0.0392
S. pneumoniae D39V, first compound 0.75 µg/mL, partner 6.4 µg/mL | 0.0332
S. pneumoniae D39V, first compound 1.5 µg/mL, partner 1.6 µg/mL | 0.0279
S. pneumoniae D39V, first compound 1.5 µg/mL, partner 3.2 µg/mL | 0.0271
S. pneumoniae D39V, first compound 1.5 µg/mL, partner 6.4 µg/mL | 0.064

fitness, B. subtilis 168, one replicate
Settings | partner 1.25 µg/mL | partner 1.6 µg/mL | partner 2.5 µg/mL | partner 3.2 µg/mL | partner 4 µg/mL | partner 5 µg/mL | partner 6.4 µg/mL | partner 8 µg/mL | partner 16 µg/mL
first compound 0.0475 µg/mL | 0.902 | 0.609 | 0.642 | 0.0268 | 0.0247 | 0.0756 | 0.0534 | 0.006 | 0
first compound 0.095 µg/mL | 0.805 | 0.49 | 0.607 | 0.0306 | 0.0278 | 0.0684 | 0.0417 | 0.0191 | 0.0123
first compound 0.19 µg/mL | 0.686 | 0.0405 | 0.338 | 0.0435 | 0.0329 | 0.0442 | 0.0404 | 0.0227 | 0.0213
